In ChEMBL document CHEMBL1221321, “Synthesis and properties of macrolones characterized by two ether bonds in the linker” (Bioorg Med Chem, 2010):
≈ marks a conversion by molar mass, not a printed value.

Columns and labels:
THP-1 = experiment: Cytotoxicity against human THP1 cells after 24 hrs by MTS assay; format: cell-based; conditions: THP-1, 24 h
HepG2 = experiment: Cytotoxicity against human HepG2 cells after 24 hrs by MTS assay; format: cell-based; conditions: HepG2, 24 h
Haemophilus influenzae = experiment: Antibacterial activity against Haemophilus influenzae ATCC 49247 by broth microdilution method; format: functional
Streptococcus pyogenes [1] = experiment: Antibacterial activity against constitutive MLS resistance Streptococcus pyogenes 166 GR-Micro by broth microdilution method; format: functional
Streptococcus pneumoniae [2] = experiment: Antibacterial activity against constitutive MLS resistance Streptococcus pneumoniae 58 by broth microdilution method; format: functional
Streptococcus pyogenes [3] = experiment: Antibacterial activity against efflux-mediated macrolide-resistance Streptococcus pyogenes 2 by broth microdilution method; format: functional
Streptococcus pneumoniae [4] = experiment: Antibacterial activity against efflux-mediated macrolide-resistance Streptococcus pneumoniae Ci137 by broth microdilution method; format: functional; conditions: read-out: MIC
Staphylococcus aureus [5] = experiment: Antibacterial activity against efflux-mediated macrolide-resistance Staphylococcus aureus PK1 by broth microdilution method; format: functional
Streptococcus pyogenes [6] = experiment: Antibacterial activity against inducible resistance to macrolide, licosamide and streptogramin Streptococcus pyogenes 11 by broth microdilution method; format: functional; conditions: read-out: MIC
Streptococcus pneumoniae [7] = experiment: Antibacterial activity against inducible resistance to macrolide and constitutive resistance to lincosamide Streptococcus pneumoniae 134 GR M by broth microdilution method; format: functional
Staphylococcus aureus [8] = experiment: Antibacterial activity against inducible resistance to macrolide, licosamide, and streptogramin Staphylococcus aureus 90265/97 by broth microdilution method; format: functional

SMILES | IC50 (THP-1) | IC50 (HepG2) | MIC (Haemophilus influenzae) | MIC (Streptococcus pyogenes [1]) | MIC (Streptococcus pneumoniae [2]) | MIC (Streptococcus pyogenes [3]) | MIC (Streptococcus pneumoniae [4]) | MIC (Staphylococcus aureus [5]) | MIC (Streptococcus pyogenes [6]) | MIC (Streptococcus pneumoniae [7]) | MIC (Staphylococcus aureus [8])
CCCCn1cc(C(=O)O)c(=O)c2cc(CCCOCCCO[C@H]3[C@H](C)O[C@@H](O[C@H]4[C@H](C)[C@@H](O[C@@H]5O[C@H](C)C[C@H](N(C)C)[C@H]5O)[C@](C)(O)C[C@@H](C)CN(C)[C@H](C)[C@@H](O)[C@](C)(O)[C@@H](CC)OC(=O)[C@@H]4C)C[C@@]3(C)OC)ccc21 | 27 µM | 49 µM | 1 µg/mL (≈ 0.915 µM) | ≤ 0.125 µg/mL | ≤ 0.125 µg/mL | ≤ 0.125 µg/mL | ≤ 0.125 µg/mL | ≤ 0.125 µg/mL | ≤ 0.125 µg/mL | ≤ 0.125 µg/mL | ≤ 0.125 µg/mL
CCCn1cc(C(=O)O)c(=O)c2cc(CCCOCCCO[C@H]3[C@H](C)O[C@@H](O[C@H]4[C@H](C)[C@@H](O[C@@H]5O[C@H](C)C[C@H](N(C)C)[C@H]5O)[C@](C)(O)C[C@@H](C)CN(C)[C@H](C)[C@@H](O)[C@](C)(O)[C@@H](CC)OC(=O)[C@@H]4C)C[C@@]3(C)OC)ccc21 | 18 µM | 40 µM | 2 µg/mL (≈ 1.85 µM) | 0.25 µg/mL (≈ 0.232 µM) | ≤ 0.125 µg/mL | ≤ 0.125 µg/mL | ≤ 0.125 µg/mL | ≤ 0.125 µg/mL | ≤ 0.125 µg/mL | ≤ 0.125 µg/mL | 0.25 µg/mL (≈ 0.232 µM)
CC[C@H]1OC(=O)[C@H](C)[C@@H](O[C@H]2C[C@@](C)(OC)[C@@H](OCCCOCCCc3ccc4c(c3)c(=O)c(C(=O)O)cn4C(C)C)[C@H](C)O2)[C@H](C)[C@@H](O[C@@H]2O[C@H](C)C[C@H](N(C)C)[C@H]2O)[C@](C)(O)C[C@@H](C)CN(C)[C@H](C)[C@@H](O)[C@]1(C)O | 46 µM | > 50 µM | 4 µg/mL (≈ 3.71 µM) | ≤ 0.125 µg/mL | ≤ 0.125 µg/mL | ≤ 0.125 µg/mL | ≤ 0.125 µg/mL | ≤ 0.125 µg/mL | ≤ 0.125 µg/mL | < 0.125 µg/mL | ≤ 0.125 µg/mL
CC[C@H]1OC(=O)[C@H](C)[C@@H](O[C@H]2CC(C)(OC)[C@@H](OCCCOCCCc3ccc4c(c3)c(=O)c(C(=O)O)cn4C(C)(C)C)[C@H](C)O2)[C@H](C)[C@@H](O[C@@H]2O[C@H](C)C[C@H](N(C)C)[C@H]2O)[C@](C)(O)C[C@@H](C)CN(C)[C@H](C)[C@@H](O)[C@]1(C)O (some centres undefined) | 40 µM | > 50 µM | 2 µg/mL (≈ 1.83 µM) | ≤ 0.125 µg/mL | ≤ 0.125 µg/mL | ≤ 0.125 µg/mL | ≤ 0.125 µg/mL | ≤ 0.125 µg/mL | ≤ 0.125 µg/mL | ≤ 0.125 µg/mL | ≤ 0.125 µg/mL
CC[C@H]1OC(=O)[C@H](C)[C@@H](O[C@H]2C[C@@](C)(OC)[C@@H](OCCCOCCCc3ccc4c(c3)c(=O)c(C(=O)O)cn4N(C)C)[C@H](C)O2)[C@H](C)[C@@H](O[C@@H]2O[C@H](C)C[C@H](N(C)C)[C@H]2O)[C@](C)(O)C[C@@H](C)CN(C)[C@H](C)[C@@H](O)[C@]1(C)O | 48 µM | > 50 µM | 2 µg/mL (≈ 1.85 µM) | ≤ 0.125 µg/mL | ≤ 0.125 µg/mL | ≤ 0.125 µg/mL | ≤ 0.125 µg/mL | ≤ 0.125 µg/mL | ≤ 0.125 µg/mL | 0.25 µg/mL (≈ 0.232 µM) | ≤ 0.125 µg/mL
CC[C@H]1OC(=O)[C@H](C)[C@@H](O[C@H]2C[C@@](C)(OC)[C@@H](OCCCOCCCc3ccc4c(c3)c(=O)c(C(=O)O)cn4C3CC3)[C@H](C)O2)[C@H](C)[C@@H](O[C@@H]2O[C@H](C)C[C@H](N(C)C)[C@H]2O)[C@](C)(O)C[C@@H](C)CN(C)[C@H](C)[C@@H](O)[C@]1(C)O | 48 µM | > 50 µM | 2 µg/mL (≈ 1.86 µM) | ≤ 0.125 µg/mL | ≤ 0.125 µg/mL | ≤ 0.125 µg/mL | ≤ 0.125 µg/mL | ≤ 0.125 µg/mL | ≤ 0.125 µg/mL | ≤ 0.125 µg/mL | ≤ 0.125 µg/mL
CC[C@H]1OC(=O)[C@H](C)[C@@H](O[C@H]2C[C@@](C)(OC)[C@@H](O)[C@H](C)O2)[C@H](C)[C@@H](O[C@@H]2O[C@H](C)C[C@H](N(C)C)[C@H]2O)[C@](C)(O)C[C@@H](C)CN(C)[C@H](C)[C@@H](O)[C@]1(C)O [AZITHROMYCIN] |  |  | 1 µg/mL (≈ 1.34 µM) | > 64 µg/mL | > 64 µg/mL | 8 µg/mL (≈ 10.7 µM) | 8 µg/mL (≈ 10.7 µM) | > 64 µg/mL | 16 µg/mL (≈ 21.4 µM) | > 64 µg/mL | > 64 µg/mL
CC[C@H]1OC(=O)[C@H](C)C(=O)[C@H](C)[C@@H](O[C@@H]2O[C@H](C)C[C@H](N(C)C)[C@H]2O)[C@](C)(OC)C[C@@H](C)C(=O)[C@H](C)[C@H]2N(CCCCn3cnc(-c4cccnc4)c3)C(=O)O[C@]12C [TELITHROMYCIN] |  |  | 1 µg/mL (≈ 1.23 µM) | 16 µg/mL (≈ 19.7 µM) | 0.25 µg/mL (≈ 0.308 µM) | 0.5 µg/mL (≈ 0.616 µM) | 0.5 µg/mL (≈ 0.616 µM) | 0.125 µg/mL (≈ 0.154 µM) | ≤ 0.125 µg/mL | 0.25 µg/mL (≈ 0.308 µM) | ≤ 0.125 µg/mL
